Results as given in paper PMC4084891, “Decreased Phenotypic Susceptibility to Etravirine in Patients with Predicted Genotypic Sensitivity” (PLoS ONE, 2014).
Read-outs that look alike come from different tables or passages of the source.

What was measured:
[1] = system: HIV-1 reverse transcriptase, recovered from plasma of HIV-1 infected patients; experiment: ExaVir Drug susceptibility assay (RT-based phenotypic), RT recovered from patient plasma; format: biochemical
Description: Lysates containing intraviral RT were recovered from plasma using ExaVir Load, version 3 (Cavidi, Uppsala, Sweden). Briefly, virions from up to 1 ml plasma were bound to an ion exchange gel, washed, and the RT was extracted by lysing the purified virions. The RT was used to catalyse the incorporation of bromodeoxyuridine triphosphate (BrdUTP) into DNA via a poly-rA (ribodenylic acid template) plate. The amount of BrdU monophosphate (BrdUMP) incorporated into DNA was detected with an alkaline phosphatase (Ap) conjugated anti-BrdU monoclonal antibody. The Ap substrate para-nitrophenyl-diphosphate was used for colorimetric detection. […] The RT activity at each drug concentration was recalculated into percentage of RT activity in the absence of drug. The IC50 values were calculated using the median effect equation [23]. […] In the present study, two reference recombinant RTs, BH10-wild-type and its mutant form L100I, were analysed together with patient samples in each assay. The results of the phenotypic tests were evaluated independently by two persons (E.A, C.FR.K).

[2] = molecular target: HIV-1 reverse transcriptase, recovered from plasma of HIV-1 infected patients; parameters: method as in PMID 23364785; settings: cited from earlier work

In the case of `Cc1cc(C#N)cc(C)c1Oc1nc(Nc2ccc(C#N)cc2)nc(N)c1Br` [ETR, 4-[[6-amino-5-bromo-2[(4-cyanophenyl)amino]-4-pyrimidinyl]oxy]-3.5-dimethylbenzonitrile], the “result of phenotypic assay” value ([1]; patient 4, K103R mutation, NNRTI-naïve) is reported as “sensitive”, the “result of phenotypic assay” value ([1]; patients/samples 7, 11b, 15, 9a and 12, NNRTI stopped earlier) is reported as “No phenotypic resistance” and the IC50 ([1]; read-out: IC50 to ETR, mean ±SD, ten samples considered sensitive (3a, 4, 7, 9a, 11b, 12, 15, 16, 17, 18)) is reported as 3.1 ± 1.3 µM. For the same compound, the IC50 ([1]; read-out: IC50 to ETR, range, six samples with decreased susceptibility (1, 9b, 10, 11a, 19, 20)) was 6.4 to 13.6 µM, the IC50 ([1]; read-out: IC50 to ETR, patient sample 1) was 11.8 µM and the IC50 ([1]; read-out: IC50 to ETR, patient sample 2) was over 100 µM. It also gave an IC50 ([1]; read-out: IC50 to ETR, patient sample 3b) of over 100 µM, an IC50 ([1]; read-out: IC50 to ETR, patient sample 6) of over 100 µM and an IC50 ([1]; read-out: IC50 to ETR, patient sample 8a) of over 100 µM. The IC50 ([1]; read-out: IC50 to ETR, patient sample 8b) was over 100 µM, the IC50 ([1]; read-out: IC50 to ETR, patient sample 9b) was 9.2 µM and the IC50 ([1]; read-out: IC50 to ETR, patient sample 10) was 13.6 µM. It also gave an IC50 ([1]; read-out: IC50 to ETR, patient sample 11a) of 7.3 µM, an IC50 ([1]; read-out: IC50 to ETR, patient sample 19) of 6.4 µM and an IC50 ([1]; read-out: IC50 to ETR, patient sample 20) of 7.2 µM. For the same compound, the IC50 ([2]; read-out: IC50 for ETR, mean ± SD (reproducibility analysis, first value), not influenced by RT amount within 40–828 fg/ml RT) was 1600 ± 30 nM, the IC50 ([2]; read-out: IC50 for ETR, mean ± SD (reproducibility analysis, second value), not influenced by RT amount within 40–828 fg/ml RT) was 3100 ± 40 nM and the IC50 ([2]; read-out: IC50 for RT activity in the presence of ETR, mean ±SD, treatment-naïve patients and reference recombinant RTs) was 2500 ± 1000 nM.
